Experimental data published in patent US11911364B2, “Positive allosteric modulators of GABAA receptor” (PEPTICOM LTD., priority 2018, dated 2024).

Target: T1, human GABA receptor (subunits α1β3γ2) (Homo sapiens, UniProt P14867+P18507+P28472)
T1 construct: expressed in transfected cells; host or cells: HEK293
Experiment: Manual whole-cell patch-clamp recording of GABA receptor-mediated Cl- current in HEK293 cells
Format: cell-based
Conditions: for mode of action at the human GABAA receptor: human GABAA receptor α1β3γ2, electrophysiological recordings; for effect on human GABA receptor-mediated Cl- current: human α1β3γ2 receptor expressed in HEK293 cells, manual whole-cell patch-clamp
Experimental: All the compounds of the present invention were tested and validated using electrophysiological recordings on the human GABAA receptor comprising of the following subunits α1β3γ2. The compounds of the present invention are used in the preparation of a neuroactive pharmaceutical composition, in improving sperm motility or in labeling of biomolecules.
The human GABA receptor (subunits α1β3γ2) was expressed in HEK293 cells in manual whole-cell patch-clamp settings.
These compounds of the present invention are experimentally shown to specifically bind to the GABAA receptor. Therefore, they are capable of activating, inhibiting or modulating the GABAA receptor. These compounds were derived in-silico and tested in-vitro in cell cultures. […] The human GABA receptor (subunits α1β3γ2) used in these experiments was expressed in the HEK293 cells in manual whole-cell patch-clamp settings.

T1 sequence (P14867 28-456): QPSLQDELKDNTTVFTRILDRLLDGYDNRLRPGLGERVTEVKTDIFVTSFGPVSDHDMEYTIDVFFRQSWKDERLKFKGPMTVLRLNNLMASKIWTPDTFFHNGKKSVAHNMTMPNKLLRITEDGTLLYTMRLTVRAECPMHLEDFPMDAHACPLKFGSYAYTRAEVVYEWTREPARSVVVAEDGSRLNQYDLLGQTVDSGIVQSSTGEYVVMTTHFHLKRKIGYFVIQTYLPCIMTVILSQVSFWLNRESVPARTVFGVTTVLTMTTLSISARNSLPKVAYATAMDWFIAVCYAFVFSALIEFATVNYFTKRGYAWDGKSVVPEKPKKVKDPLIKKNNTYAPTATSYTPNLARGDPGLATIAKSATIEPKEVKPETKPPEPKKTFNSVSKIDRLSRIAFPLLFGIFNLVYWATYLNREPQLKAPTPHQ
T1 sequence (P28472 26-473): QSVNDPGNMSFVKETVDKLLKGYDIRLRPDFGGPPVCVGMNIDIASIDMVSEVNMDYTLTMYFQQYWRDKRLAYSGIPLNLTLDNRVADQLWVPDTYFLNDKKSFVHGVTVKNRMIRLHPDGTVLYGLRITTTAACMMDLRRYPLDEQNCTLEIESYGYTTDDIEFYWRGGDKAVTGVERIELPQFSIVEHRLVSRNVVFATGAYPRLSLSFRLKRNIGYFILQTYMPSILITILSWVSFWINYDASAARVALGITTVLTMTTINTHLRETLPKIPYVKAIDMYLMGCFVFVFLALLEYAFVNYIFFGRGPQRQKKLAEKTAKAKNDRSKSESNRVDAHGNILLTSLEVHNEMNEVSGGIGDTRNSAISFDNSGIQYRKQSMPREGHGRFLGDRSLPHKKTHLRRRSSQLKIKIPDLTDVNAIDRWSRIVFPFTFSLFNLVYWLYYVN
T1 sequence (P18507 40-475): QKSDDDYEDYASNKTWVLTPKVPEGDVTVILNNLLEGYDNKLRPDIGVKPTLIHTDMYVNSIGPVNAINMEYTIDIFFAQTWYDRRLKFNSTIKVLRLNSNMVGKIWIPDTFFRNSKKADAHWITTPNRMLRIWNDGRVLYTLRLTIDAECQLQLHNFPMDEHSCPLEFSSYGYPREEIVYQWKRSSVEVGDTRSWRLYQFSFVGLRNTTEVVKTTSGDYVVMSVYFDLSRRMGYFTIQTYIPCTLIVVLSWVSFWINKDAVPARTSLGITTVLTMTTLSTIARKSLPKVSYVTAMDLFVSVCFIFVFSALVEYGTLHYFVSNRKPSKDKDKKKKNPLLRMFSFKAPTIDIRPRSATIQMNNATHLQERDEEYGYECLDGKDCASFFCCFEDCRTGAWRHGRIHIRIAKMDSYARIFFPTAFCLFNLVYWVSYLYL

mode of action at the human GABAA receptor | effect on human GABA receptor-mediated Cl- current | Compound
positive allosteric modulation | selective potentiation | CC(C)CC(NC(=O)c1ccc(S(N)(=O)=O)o1)c1cccs1 (stereo not shown) [Compound 1]
inhibiting | selective potentiation | O=C(O)CC1(c2ccc(Br)cc2)CNC1 [Compound 2]
